Measured values reported in patent US11006595B2, “Rice cultivar designated ‘CL153’” (Board of Supervisors of Louisiana State University and …, priority 2016, dated 2021).

System: ‘CL153’ rice plant
Experiment: Herbicide tolerance and susceptibility of rice cultivar 'CL153'
Assay type: in vivo, Oryza sativa
Conditions: for resistance or sensitivity of ‘CL153’ to the herbicide: at levels of the herbicide that would normally inhibit the growth of a rice plant, partly actual observations, partly assumptions based on common ancestry with ‘CL161’; for resistance of ‘CL153’ to imidazolinone herbicides: general statement, profile essentially identical to ‘CL161’
Source text: Among others, the herbicide tolerance and susceptibility characteristics of ‘CL153’ include or are expected to include the following.

Row | Structure (SMILES) | resistance or sensitivity of ‘CL153’ to the herbicide | resistance of ‘CL153’ to imidazolinone herbicides
1 | CCOC(=O)c1ccccc1S(=O)(=O)NC(=O)Nc1nc(Cl)cc(OC)n1 [chlorimuron ethyl] | sensitive | 
2 | COCc1cnc(C2=NC(C)(C(C)C)C(=O)N2)c(C(=O)O)c1 (centres unmarked) [imazamox] | resistant | highly resistant
3 | Cc1cnc(C2=NC(=O)C(C)(C(C)C)N2)c(C(=O)O)c1 (centres unmarked) [imazapic] | resistant | 
4 | CC(C)C1(C)N=C(c2ncccc2C(=O)O)NC1=O (centres unmarked) [imazapyr] | resistant | 
5 | CC(C)C1(C)N=C(c2nc3ccccc3cc2C(=O)O)NC1=O (centres unmarked) [imazaquin] | resistant | 
6 | CCc1cnc(C2=NC(C)(C(C)C)C(=O)N2)c(C(=O)O)c1 (centres unmarked) [imazethapyr] | resistant | highly resistant
7 | COC(=O)c1ccccc1S(=O)(=O)NC(=O)Nc1nc(C)nc(OC)n1 [metsulfuron methyl] | resistant | 
8 | COc1cc(OC)nc(NC(=O)NS(=O)(=O)c2ncccc2C(=O)N(C)C)n1 [nicosulfuron] | resistant | 
9 | CCS(=O)(=O)c1cccnc1S(=O)(=O)NC(=O)Nc1nc(OC)cc(OC)n1 [rimsulfuron] | sensitive | 
10 | COC(=O)c1ccccc1S(=O)(=O)NC(=O)Nc1nc(C)cc(C)n1 [sulfometuron methyl] | sensitive | 
11 | COC(=O)c1sccc1S(=O)(=O)NC(=O)Nc1nc(C)nc(OC)n1 [thifensulfuron methyl] | resistant | 
12 | COC(=O)c1ccccc1S(=O)(=O)NC(=O)N(C)c1nc(C)nc(OC)n1 [tribenuron methyl] | resistant | 
